# Data published in patent US7576071B2, “Antithrombotic compound” (sanofi-aventis, priority 2004, dated 2009).
# Read-outs that look alike come from different tables or passages of the source.
# Assays:
# [1] = tested on: human platelets (platelet rich plasma), ADP-induced aggregation; test: In vitro test for inhibition of human platelet aggregation induced by ADP; assay type: cell-based; conditions: Platelet
# Excerpt: I.a. In vitro Test for Inhibition of Human Platelet Aggregation Induced by ADP
# Addition of adenosine diphosphate (ADP) to human platelet rich plasma (PRP) in vitro induces platelet aggregation. This aggregation can be assessed by measuring the optical density (OD) of the PRP. The in vitro test described here was used to determine the inhibitory activity of a test compound on the ADP-induced aggregation of human platelets. A micro plate reader is used to measure the activity of several compounds simultaneously.
# (§1) An alternative vehicle is 0.9% NaCl in MQ H2O. The compound solution (either in MQ H2O or 0.9% NaCl in MQ H2O) is further diluted in 0.9% NaCl in MQ H2O.
# Free-flowing blood (at least 100 mL) is taken from a healthy volunteer and collected in 0.1 volume 3.8% sodium citrate. 2H2O in distilled H2O (w/v). The final concentration is 0.38% sodium citrate.
# The citrated blood is centrifuged at 1,600 N/kg (160 g) at RT. After 15 min, centrifugation is discontinued with the brake turned off and the supernatant (=PRP) is collected. • 2. ADP (Kordia/Chrono-par # 384). Before use, a solution of 50 μM in 0.9% NaCl is prepared. Equipment • 1. Sysmex blood cell counter model KX-21. • 2. Labsystems iEMS reader MF with a 620 nm filter, an orbital shaker set at 1,000 rpm and a constant temperature of 37° C. Absorption is measured with the Labsystems iEMS program. • 3. Blood collection system 600 mL with needle, art P4203 (NPBI). • 4. 96 wells flat bottom micro plates (Greiner Labortechnik). Procedure
# The platelets in the supernatant (PRP) are counted using a Sysmex blood cell counter and the supernatant is diluted with PPP to obtain a PRP containing 400,000±50,000 plt/μL. PRP should stabilize at RT for at least 20 min but not longer than 3 h.
# 150 μL PRP is pipetted into a well of the micro plate. 30 μL test compound in a range of concentrations (7 concentrations per compound) or vehicle is added and the micro plate is placed in the Labsystems iEMS reader MF at 37° C. The optical density (OD620) is then measured at 620 nm. After shaking for 2 min in the reader (1,000 rpm), the OD is measured for the second time. This is to verify the stability of the platelets (absence of spontaneous platelet aggregation). Then, 20 μL of 50 μM ADP solution is added and the OD is kinetically measured every min for 14 min at 620 nm (FIG. 1). Between two measurements, the plate is shaking for 40 seconds at 1,000 rpm. Each test compound is investigated in at least 2 experiments using PRP from different volunteers.
# The mean OD at each compound concentration (including vehicle) is calculated at t=0 min and t=10 min. The percentage inhibition at each concentration is calculated using the formula: […]
# The IC50 of the test compound is the concentration of the test compound at which the ADP-induced platelet aggregation is reduced by 50%. For this, the percentage inhibition values are plotted against compound concentration. Then, IC50, nH (Hill slope) and efficacy of the test compound is calculated using Graphpad Prism 3.0 (with variable slope).
# Reference: Salmon, D. M. (1996) Thrombosis Research 84, 213-216.
# [2] = tested on: washed human platelets, TRAP-induced aggregation; test: In vitro test for inhibition of human platelet aggregation induced by TRAP; assay type: cell-based; conditions: Platelet
# Excerpt: I.b. In vitro Test for Inhibition of Human Platelet Aggregation Induced by TRAP
# Introduction: Addition of trombin receptor agonist peptide (TRAP) to washed human platelets (WPL) in vitro induces platelet aggregation. This aggregation can be determined by measuring the optical density of the WPL. The in vitro test described here is used to analyze the activity of a test compound to inhibit TRAP-induced aggregation of human platelets. A micro plate reader is used to measure the activity of several compounds simultaneously.
# as §1
# Free-flowing blood (at least 100 mL) is taken from a healthy volunteer and collected in 0.1 volume 3.8% sodium citrate. 2H2O in MQ H2O (w/v). The final concentration is 0.38% sodium citrate. The citrated blood is centrifuged at 1,600 N/kg (160 g) in Hettich Rotanta/AP centrifuge (750 rpm) at RT. After 15 min, centrifugation is discontinued with the brake turned off and the supernatant (=PRP) is collected. • 2. Washed platelets (WPL):
# After adding freshly made 1 μL PGI2 solution per ml PRP, the suspension is centrifuged at 13,500 N/kg (1,350 g) for 10 min in a Hettich Rotanta/AP centrifuge (i.e., 2,800 rpm) at RT. After gentle resuspension of the pellet in the same volume of fresh Watson buffer containing 5 ng/mL PGI2, the suspension is centrifuged at 1,350 g (2,800 rpm) for 10 min at RT again. The final platelet pellet is resuspended in Watson buffer to give approx. 400,000±50,000 platelets/[…]. • 3. Watson buffer:
# 134 mM NaCl, 2.9 mM KCl, 12 mM NaHCO3, 0.34 mM Na2HPO4.2H2O, 1 mM MgCl2.6H2O, 5 mM Glucose and 5 mM HEPES in MQ H2O. The pH is adjusted to 7.4 with 1 M NaOH. • 4. Prostaglandin I2 (Sigma, P6188 powder):
# The PGI2 stock solution of 1 mg/mL in 1 M KOH is stored in aliquots of 100 μL at −20° C. Immediately before use, a solution of 5 μg/mL in ice-cold 0.9% NaCl in MQ H2O is prepared. • 5. Human Fibrinogen (Kordia/ERL, art nr: FIB 2 powder):
# 0.5 g fibrinogen powder is dissolved in 50 mL MQ H2O under vacuum. This stock solution is stored in aliquots of 1 mL at −20° C. Before use, a solution of 0.5 mg/mL in saline is prepared.
# Before use, a solution of 50 μM TRAP in 0.9% NaCl in MQ H2O is prepared. For each test, a fresh solution is made.
# • 1. Sysmex cell counter model KX-21 • 2. Labsystems iEMS reader MF with a 405 nm filter, an orbital shaker set at 1,000 rpm and a constant temperature of 37° C. Absorptions are measured with the Labsystems iEMS program. • 3. Blood collection system 600 mL with needle, art nr P4203 (NPBI) • 4. 96 wells micro plates (Greiner Labortechnik) flat-bottom
# Procedure: The WPL concentration is counted in a Sysmex blood cell counter and the suspension is diluted with Watson buffer to obtain a concentration of 400,000±50,000 plt/μL. Before use, WPL is allowed to stabilize at room temperature for at least 20 min but not longer than 3-4 hours.
# TRAP-induced aggregation: 150 μL WPL is pipetted into a well of a micro plate. 15 μL test compound or vehicle and 15 μL fibrinogen solution is added and the micro plate is placed in the micro plate reader at 37° C. Then, the optical density (OD) is measured at 405 nm and after shaking for 2 min in the reader, the OD405 is measured again to verify the stability of the platelets (absence of spontaneous platelet aggregation). 20 μL of 50 μM TRAP is added and the OD405 is kinetically measured every min for 14 min at 405 nm. Between two measurements, the plate is shaking for 40 seconds at 1,000 rpm (FIG. 1). For determination of the IC50 of a test compound, each test compound is investigated in at least 2 experiments using WPL from different volunteers.
# Evaluation of response: The mean OD of each concentration (including vehicle) is calculated at t=0 min and t=10 min. The percentage inhibition at each concentration is calculated using the formula: […]
# [3] = 5 μM ADP, human PRP, mean of n experiments, entries marked b measured with a Chronolog aggregometer, others with micro plate reader, read-out: Inhibition of ADP-induced (5 μM) human platelet aggregation (IC50), mean
# [4] = 5 μM TRAP, washed human platelets, mean of n experiments, entries marked b measured with a Chronolog aggregometer, others with micro plate reader, read-out: Inhibition of TRAP (5 μM)-induced human platelet aggregation (IC50), mean
Structure (SMILES),"IC50 [1, 3]","IC50 [2, 4]","IC50 ([1]; Homo sapiens, read-out: IC50, inhibition of human platelet aggregation induced by 5 μM ADP (reference compound))","IC50 ([2]; Homo sapiens, read-out: IC50, inhibition of human platelet aggregation induced by 5 μM TRAP (reference compound))"
"O=C(O)C[C@H](NC(=O)[C@@H]1CCCN(C(=O)CCC2CCNCC2)C1)C(=O)O [Compound VI, {N-3-[4-piperidinepropionyl]-(R)-(−)-nipecotyl}-L-aspartate]",22600 nM,6290 nM,–,–
"CC(C)(C)OC(=O)COCCOCCOCCOCCNC(=O)[C@H](CC(=O)O)NC(=O)[C@@H]1CCCN(C(=O)CCC2CCNCC2)C1 [Compound VII, tert-Butyl N-{[N-3-(4-piperidinepropionyl)-(R)-(−)-nipecotyl]-L-aspartyl}-15-aza-3,6,9,12-tetraoxa-pentadecanoate]",380 nM,270 nM,–,–
"N=C(N)c1ccc(NC(=O)CCC(=O)N[C@@H](CC(=O)O)C(=O)O)cc1 [XVIII, reference compound]",2010 nM,1190 nM,–,–
"O=C(O)CCNC(=O)[C@@H]1CCCN(C(=O)CCC2CCNCC2)C1 [XX, reference compound]",310 nM,380 nM,–,–
"CCCCS(=O)(=O)N[C@@H](Cc1ccc(OCCCCC2CCNCC2)cc1)C(=O)O [tirofiban, reference compound]",–,–,30 to 60 nM,30 to 60 nM

# The next lines start with results.
"IC50 [1, 3]","IC50 [2, 4]",Structure (SMILES),"IC50 ([1]; Homo sapiens, read-out: IC50, inhibition of human platelet aggregation induced by 5 μM ADP (reference compound))","IC50 ([2]; Homo sapiens, read-out: IC50, inhibition of human platelet aggregation induced by 5 μM TRAP (reference compound))"
610 nM,220 nM,"CC(C)(C)OC(=O)COCCOCCOCCOCCNC(=O)[C@H](Cc1ccccc1)NC(=O)[C@H](CC(=O)O)NC(=O)CCNC(=O)c1ccc(C(=N)N)cc1 [Compound I, tert-Butyl({N-(4-amidinobenzoyl)-β-alanyl}-L-aspartyl-L-phenylalanyl)-15-aza-3,6,9,12-tetraoxa-pentadecanoate]",–,–
350 nM,120 nM,"CC(C)(C)OC(=O)COCCOCCOCCOCCNC(=O)[C@H](Cc1ccccc1)NC(=O)[C@H](CC(=O)O)NC(=O)CCC(=O)Nc1ccc(C(=N)N)cc1 [Compound IV, tert-Butyl N-{(4-benzamidino)-succinamyl}-L-aspartyl-L-phenylalanyl-15-aza-3,6,9,12-tetraoxa-pentadecanoate]",–,–
380 nM,250 nM,"CC(C)(C)OC(=O)COCCOCCOCCOCCNC(=O)[C@H](CC(=O)O)NC(=O)CCC(=O)Nc1ccc(C(=N)N)cc1 [III, tert-Butyl N-{(4-benzamidino)-succinamyl}-L-aspartyl-15-aza-3,6,9,12-tetraoxa-pentadecanoate]",–,–
1180 nM,–,"CC(C)(C)OC(=O)COCCOCCOCCOCCNC(=O)[C@H](Cc1ccccc1)NC(=O)[C@H](CC(=O)O)NC(=O)[C@@H]1CCCN(C(=O)CCC2CCNCC2)C1 [IX, tert-Butyl N-{[N-3-(4-piperidinepropionyl)-(R)-(−)-nipecotyl]-L-aspartyl-L-phenylalanyl}-15-aza-3,6,9,12-tetraoxa-pentadecanoate]",–,–
